From US20240059739A1, “PEPTIDES FOR INCREASING DRUG DELIVERY TO CANCER” (Chapman University, priority 2022, published 2024)
Where a SMILES comes first, the peptide text is derived from it.

Legend:
[1] = system: human melanoma A375 tumor xenografts and organs; assay: In vivo and ex vivo imaging of biodistribution in mice bearing A375 xenografts; set-up: species or system athymic nude mice; conditions: ex vivo imaging
Procedure: FIG. 4A and FIG. 4B-1 and FIG. 4B-2 show in vivo and ex vivo organ distribution images of VivoTag 680 XL-labeled D-aa KK-11 in athymic nude mice bearing human melanoma A375 tumors. Saline or VivoTag-KK-11 in a dose of 8 μg per mouse was injected into the mice via the tail vein (n=2 for each time point).
The top panels represent the scanned images of the tumor section area in coronal views. The bottom-row pictures display the fluorescence image in trans-axial views: arrows point to the spine, and circles mark the xenograft tumors.
Organs including tumor xenografts (T), liver (L), spleen (S), heart and lungs (H+L), kidneys (K), and brain (B) were excised and imaged using the IVIS Spectrum imaging system. Representative fluorescence images of different organs show peptide distribution at different time points as indicated.
Ex vivo and in vivo imaging. The study was carried out in compliance with Animal Research: Reporting of In Vivo Experiments (ARRIVE) guidelines. All the animal procedures were approved by the Institutional Animal Care and Use Committee (IACUC) at Chapman University and conducted in compliance with the policies of Chapman University, and federal, state, and local animal welfare authorities. Male and female athymic nude mice (4-6 weeks old) were kept (5 in each cage) in a pathogen-free environment. Approximately 10^6 human melanoma A375 cells (0.1 mL in normal saline), mixed with 0.1 mL cold Matrigel (#354248; Corning, Corning, NY), were injected subcutaneously in the flank. The tumor size was measured with a caliper, and body weight was recorded once a week. When the tumor size reached approximately 800-1000 mm^3 as calculated using the following formula: [Length×(Width^2)]/2 (in mm), mice were processed for in vivo or ex vivo imaging.
For in vivo imaging, normal saline or VivoTag-KK-11 at a dose of 8 μg per mouse was injected into the mice via the tail vein (n=2 for each time point). The animals were then scanned at different time intervals (0.5, 2, 6, and 24 h) using an IVIS Spectrum in vivo imaging system (PerkinElmer, Waltham, MA). The mice were imaged for 0.5 sec, 10 bin, level B at an emission wavelength of 688±5 nm. Imaging was limited to no more than once a day and was conducted under continuously maintained isoflurane. Mice were maintained on alfalfa-free diets to minimize the background fluorescence. All the study animals survived through the in vivo imaging procedure.
For ex vivo imaging at defined time intervals (5, 15, 30 min, followed by 1, 1.5, 2, 3, 4, 6, 24, and 48 h) following fluorescence conjugate injection, animals were euthanized via carbon dioxide inhalation (n=2 for each time point); tumor, liver, spleen, heart, lungs, brain, and kidneys were collected and briefly rinsed with saline. The organs were then imaged for 0.5 sec, 10 bin, level B at an emission wavelength of 688±5 nm using an IVIS Spectrum imaging system.

[2] = Serum stability (RP-HPLC AUC of intact peptide); format: in vitro ADME
Procedure: Serum stability. Human serum (250 μL) was thawed to room temperature and was added to DMEM media (650 μL). The mixture was kept in a 37° C. incubator to mimic human body temperature for 15 min. The peptide (100 μL, 1 mM) was dissolved (dispersed) in sterile water. The peptide solution was added to the pre-warmed human serum and DMEM mixture. The mixture was incubated at 37° C. At different time points (0, 0.5, 1, 5, and 24 h) aliquots (100 μL) were removed and added to methanol (200 μL). Each time point sample was kept at 4° C. for 5 min and then was centrifuged at 500×g for 15 min to separate serum proteins. The supernatant was injected into the RP-HPLC, and the major peaks were collected. The peak's mass was determined using MALDI-TOF mass analysis. The serum stabilities of the D-aa KK-11 were determined by comparing the HPLC peaks (AUC) for the intact peptides at different time points.
For in vivo studies, peptide KK-11 was labeled with a fluorescent Vivotag 680 XL in the N-terminus (Scheme 1). In addition, two amino acids in the sequence (norleucine and arginine) were substituted with D-amino acids to increase proteolytic stability. These amino acids were identified as proteolytically labile sites. The D-aa KK-11 peptide was assembled on acid-labile Rink amide resin and was characterized. The proteolytic stability of the D-aa KK-11 peptide was evaluated by incubating with human serum. The presence of the intact peptide after incubation with human serum for different time periods was detected using RP-HPLC and confirmed by MALDI-TOF mass analysis. […] However, peptide KK-11 with all L-amino acids reduced to an undetectable level within 30 min (data not shown). For conjugating VivoTag 680 XL dye, the peptide was modified by incorporating a β-alanine moiety generating the precursor Aβ-KK-11. The structure and mass of Aβ-KK-11 were confirmed by NMR (^1H and ^13C) and MALDI-TOF [M+H]^+ 1588.5 Da. Next, the β-alanine terminal amino group was allowed to react with the succinimidyl ester group of the reactive fluorophore (VivoTag 680 XL) under basic conditions in polar aprotic solvent, generating the fluorescently labeled peptide with extrusion of N-hydroxysuccinimide (NHS) (Scheme 1). The mass of the fluorescence-labeled VivoTag-Aβ-KK-11 was confirmed by MALDI-TOF, showing a peak at 2823.4 Da, corresponding to [M+H]^+.

[3] = system: human melanoma cell lines (A375, Sk-mel-28, wm115) compared to normal human HEK-293 cells; assay: Peptide array-whole cell binding assay (CyQUANT fluorescence); format: cell-based; conditions: average fluorescent intensity of melanoma cells (A375, Sk-mel-28, wm115) bound to peptide divided by that of HEK-293 cells bound to same peptide
Text: Peptide array synthesis. Fifty-three peptide sequences were synthesized in duplicate on derivatized cellulose membrane (Intavis, Germany) using a ResPep SL Autospot robot. The detailed method was explained previously (Ahmed et al. Anal Chem. 82:7533-7541, 2010; Hossein-Nejad-Ariani et al. Sci Rep. 9:2723, 2019). Briefly, the sequences of peptides were entered in the robot software, and 384 spot synthesis mode was selected for this library. First, the membrane was dipped in DMF for an hour followed by transfer and support to the holder of the robot on filter paper. Then the membrane was washed with ethanol and subjected to a vacuum to remove any bubbles under the membrane. The Fmoc strategy was used for peptide synthesis. DIC and Oxyma pure were used as coupling reagent and racemization suppressor, respectively. After each coupling, capping of unreacted amino acids was done using acetic anhydride (3%), followed by 20% piperidine for Fmoc deprotection. The C-terminal end of all peptides were bound to the membrane. Following the synthesis, the membrane was dipped in deprotection solution containing 15 mL TFA, 15 mL DCM, 900 μL TIPS, and 600 μL water, and kept for 3 h at room temperature. Next, membranes were thoroughly washed with DCM, DMF, and ethanol. Finally, they were air dried and kept in a sealed bag at −20° C. until use.
Peptide array cell binding assay. The sequential steps of the assay are as described in a previous publication (Ahmed et al. 2010; Soudy et al. J Med Chem. 54:7523-7534, 2011). The membrane was dipped in ethanol for 30 sec to remove any precipitation of hydrophobic peptides. Then the membrane was dipped in sterile PBS at pH 7.4 for 30 min. The cells (75×10^3 cells/mL) were seeded directly on the membrane in a sterile plate and incubated at 37° C. for 4 h. After washing off the unbound cells with sterile PBS, pH 7.4, the membrane was frozen at −80° C. for 2 h. Subsequently, it was defrosted at room temperature and incubated in CyQUANT solution at 37° C. for 30 min following the manufacturer's protocol. The membrane was then washed with sterile PBS and air-dried.
Membranes were scanned using the ChemiDoc™ XRS+system (Bio-Rad) to analyze the fluorescence intensity of each spot. The setting was adjusted based on the excitation and emission wavelength of the CyQUANT dye at 465 nm and 535 nm, respectively. The fluorescence intensity (FI) was normalized by the FI of non-cancerous HEK-293 cells.
A library of 53 peptides was synthesized in an array format on a cellulose membrane using SPOT synthesis (Table 1). The peptide library was designed starting with five lead cancer cell targeting peptides, Arg peptide (1, Table 1), p160 analogue (11), RGD (16), GE11 (20), and LSD (37). Conservative substitutions, deletion from the N- or C-terminus, alanine scan, and scrambling of amino acids were used to design the analogues for the library. The peptides were screened for specific binding to three human melanoma cell lines. The cells were incubated with the cellulose membranes with conjugated peptides followed by incubation with CyQUANT fluorescence dye. A brief schematic for the peptide array-whole cell binding assay for screening peptides with high affinity for melanoma cells is shown in FIG. 2A. The relative cell adhesion capacities of the peptides to A375 (FIG. 2B), Sk-mel-28 (FIG. 2C), and wm115 were estimated based on the fluorescence of the bound melanoma cells compared to normal human HEK-293 cells.

[4] = system: human melanoma cells (wm3211, Sk-mel-28, A375); assay: In vitro cellular uptake of FITC-labeled peptides by flow cytometry (FACS); format: cell-based; conditions: 0.5 and 1 μM
Procedure: (§1) The bar represents the average fluorescence density of three cell lines (A375, Sk-mel-28, and wm3211 cells) detected by fluorescence-activated cell sorting (FACS) analysis. The cells were incubated with FITC-labeled peptide for […] at 37° C. (0.5 μM, grey bar; 1 μM, dark bar). The control is cells incubated with FITC alone. […] Cells were either treated with DOX or co-treated with DOX and KK-11 (1 μM) for 72 h (KK-11+DOX) or pretreated with KK-11 for 4 h, then washed away following a DOX 72 h treatment (KK-11 to DOX). Control is DMSO or KK-11 alone. Cell viability was detected by a MTT colorimetric assay. Statistical analysis was performed with a student's t-test, and error bars denote mean±SD; **, p<0.01; ***, p<0.001 compared to DOX alone. […] Cells were treated with MAC-3-190 at various concentrations with or without 1 μM KK-11 for 72 h. Cell viability was detected by MTT assay. The assays were repeated independently at least three times.
In vitro cellular uptake analysis. The peptide (FITC-labeled) concentration was determined using a Shimadzu BioSpec-nano Micro-volume UV-Vis spectrophotometer (Shimadzu). Human melanoma cells (wm3211, Sk-mel-28, and A375) were incubated with FITC or FITC-labeled peptides at final concentrations of 0.5 μM and 1 μM for 2 h. […] The mean fluorescence density of 10,000 cells was analyzed and compared to that of control cells.

[5] = system: A375 melanoma cells; assay: In vitro cytotoxicity detected by MTT colorimetric assay; format: cell-based, human; conditions: in vitro
Procedure: as §1
In vitro cytotoxicity detected by MTT colorimetric assay. Cells were seeded in a 96-well plate and allowed to adhere overnight prior to adding the compound. After 72 h of treatment in serum-free media, an MTT solution was added to each well to give a final concentration of 0.5 mg/mL and was incubated for 3 h. Formed crystals were solubilized, and the absorbance was measured at 595 nm.

[6] = system: human primary glioma U87 cells; assay: Binding to glioma cells (data not shown); format: cell-based
[7] = system: A375 human melanoma xenograft; assay: In vivo xenograft melanoma mouse model
Procedure: FIG. 5A; the tumors were measured three times a week using digital Vernier calipers. Tumor volume (mm^3) was calculated as [Length×(Width^2)/2. […] FIG. 5C; the body weights of the mice were measured after 21 days of treatment. Statistical analysis was performed with student's t-test and error bars denote mean±SD: *, p<0.05 compared to control group.
In vivo xenograft melanoma mouse model. Nude mice (Nu/Nu) were purchased from Charles River (Wilmington, MA) and were housed and maintained in the Chapman University vivarium under pathogen-free conditions. A375 cells were suspended in cold Matrigel and injected subcutaneously into the flank of each mouse (1×10^6 cells per mouse) to establish tumors. […] For the co-treatment, the solution of D-aa KK-11 and MAC-3-190 (1:11 molar ratio) was mixed gently and incubated at room temperature for 30 min before injection via tail vein. The growth of the tumors was monitored three times a week and measured using digital Vernier calipers. The tumor volume (mm^3) was calculated as [Length×(Width^2)]/2 (in mm). The mice were sacrificed after 21 days per IACUC policy when the control group's average tumor size reached 2,000 mm^3. Tumor xenografts were removed and weighed.

Row | time at which fluorescence is evident in tumor xenografts ([1]; 8 μg per mouse, tail vein) [min] | time fluorescence remained detectable in tumor xenografts ([1]; single tail vein injection) | remaining at 5 h, 100 µM ([2]; human serum (25% v/v in DMEM), 37° C., 5 h, read-out: area under the curve of the peptide peak, of control (t=0 h)) [%] | remaining at 24 h, 100 µM ([2]; human serum (25% v/v in DMEM), 37° C., 24 h, read-out: area under the curve of the peptide peak / peptide remaining, of control (t=0 h)) [%] | area under the curve of the peptide peak / peptide remaining, of control (t=0 h) ([2]; human serum, 37° C., 24 h) [%] | Compound | Fluorescence Ratio [3] | uptake by melanoma cells (in words) [4] | cytotoxicity of peptide alone [5] | binding to U87 cells [6] | time until reduced to an undetectable level ([2]; human serum, data not shown) [min] | toxicity of peptide alone in vivo [7]
1 | ≤ 5 | up to 24 h | 97.4 | 45.3 | 45.3 | CCCC[C@@H](NC(=O)[C@H](Cc1c[nH]c2ccccc12)NC(=O)[C@@H]1CCCN1C(=O)[C@@H](N)C(C)C)C(=O)N[C@@H](CCC(=O)O)C(=O)N1CCC[C@H]1C(=O)N[C@@H](C)C(=O)N[C@@H](Cc1ccc(O)cc1)C(=O)N[C@@H](CCC(N)=O)C(=O)N[C@H](CCCNC(=N)N)C(=O)N[C@@H](Cc1ccccc1)C(=O)N[C@@H](CC(C)C)C(N)=O [D-aa KK-11, VPWxEPAYQrFL] (HELM PEPTIDE1{V.P.W.[CCCC[C@@H](N[*:1])C(=O)[*:2]].E.P.A.Y.Q.[dR].F.L.[am]}$$$$V2.0; N-terminus assumed) |  |  |  |  |  | 
2 |  |  |  |  |  | GRRPRPRPRP [Peptide 1, FITC-labeled (β-alanine spacer) in the uptake study] | 1.82 | significantly increased uptake |  |  |  | 
3 |  |  |  |  |  | VPWXEPAYQRFL [Peptide 11, X stands for norleucine] | 1.80 |  | No cytotoxicity | can also bind | ≤ 30 | No cytotoxicity
